Measured values: ChEMBL document CHEMBL4400571, “Essential structure of orexin 1 receptor antagonist YNT-707, part III: Role of the 14-hydroxy and the 3-methoxy groups in antagonistic activity toward the orexin 1 receptor in YNT-707 derivatives lacking the 4,5-epoxy ring” (Bioorg Med Chem, 2019)

How the values were obtained:
[1] = target: T1, Orexin receptor type 2 (Homo sapiens, UniProt O43614); assay: Antagonist activity at human OX2 receptor expressed in CHOK1 cells assessed as inhibition of orexin-A-induced calcium mobilization preincubated for 15 mins followed by orexin-A addition and measured by FURA 2-AM dye based fluorescence assay; format: functional, cell-based
T1 sequence (O43614 whole entry): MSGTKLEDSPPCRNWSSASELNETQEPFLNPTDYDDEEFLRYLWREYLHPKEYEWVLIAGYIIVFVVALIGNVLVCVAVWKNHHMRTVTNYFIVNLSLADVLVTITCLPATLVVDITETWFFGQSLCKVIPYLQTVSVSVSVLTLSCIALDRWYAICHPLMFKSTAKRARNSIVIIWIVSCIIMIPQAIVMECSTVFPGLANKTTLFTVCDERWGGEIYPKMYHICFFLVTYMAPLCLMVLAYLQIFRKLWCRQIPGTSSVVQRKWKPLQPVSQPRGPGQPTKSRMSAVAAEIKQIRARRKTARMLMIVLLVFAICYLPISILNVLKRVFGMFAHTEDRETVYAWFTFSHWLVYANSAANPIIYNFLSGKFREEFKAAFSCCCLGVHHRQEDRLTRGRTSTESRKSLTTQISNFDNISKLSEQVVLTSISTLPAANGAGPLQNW

[2] = target: T2, Orexin/Hypocretin receptor type 1 (Homo sapiens, UniProt O43613); assay: Antagonist activity at human OX1 receptor expressed in CHOK1 cells assessed as inhibition of orexin-A-induced calcium mobilization preincubated for 15 mins followed by orexin-A addition and measured by FURA 2-AM dye based fluorescence assay; format: functional, cell-based
T2 sequence (O43613 whole entry): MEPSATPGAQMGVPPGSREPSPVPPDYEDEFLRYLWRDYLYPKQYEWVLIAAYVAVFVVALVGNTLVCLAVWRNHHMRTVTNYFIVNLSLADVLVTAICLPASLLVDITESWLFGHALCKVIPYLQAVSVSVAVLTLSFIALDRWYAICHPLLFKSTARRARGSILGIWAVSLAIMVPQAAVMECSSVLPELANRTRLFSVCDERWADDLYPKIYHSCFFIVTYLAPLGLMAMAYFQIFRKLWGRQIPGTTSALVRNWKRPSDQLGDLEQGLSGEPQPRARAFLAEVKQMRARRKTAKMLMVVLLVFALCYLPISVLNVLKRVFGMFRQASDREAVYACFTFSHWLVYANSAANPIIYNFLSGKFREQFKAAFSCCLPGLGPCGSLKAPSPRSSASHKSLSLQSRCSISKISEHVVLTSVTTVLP

SMILES: COc1ccc2c(c1)[C@]13CCN(S(=O)(=O)c4ccccc4)[C@H](C2)[C@@H]1CC[C@@H](N(C)C(=O)/C=C/c1ccoc1)C3
- Ki [1]: > 10000 nM
- Ki [2]: 5.51 nM

SMILES: CN(C(=O)/C=C/c1ccoc1)[C@H]1CC[C@@]2(O)[C@H]3CC4=C(CCCC4)[C@@]2(CCN3S(=O)(=O)c2ccccc2)C1
- Ki [1]: 91.9 nM
- Ki [2]: 7.45 nM

SMILES: CN(C(=O)/C=C/c1ccoc1)[C@H]1CC[C@@]2(O)[C@H]3Cc4ccccc4[C@@]2(CCN3S(=O)(=O)c2ccccc2)C1
- Ki [1]: 173 nM
- Ki [2]: 9.35 nM

SMILES: COc1ccc2c3c1O[C@H]1[C@H](N(C)C(=O)/C=C/c4ccoc4)CC[C@@]4(O)[C@@H](C2)N(S(=O)(=O)c2ccccc2)CC[C@]314
- Ki [1]: > 10000 nM

SMILES: COc1ccc2c(c1)[C@]13CCN(S(=O)(=O)c4ccccc4)[C@H](C2)[C@]1(O)CC[C@@H](N(C)C(=O)/C=C/c1ccoc1)C3
- Ki [1]: > 10000 nM

SMILES: CN(C(=O)/C=C/c1ccoc1)[C@@H]1CC[C@@]2(O)[C@H]3Cc4ccccc4[C@@]2(CCN3S(=O)(=O)c2ccccc2)C1
- Ki [1]: > 10000 nM
- Ki [2]: 461 nM

SMILES: COc1ccc2c(c1)[C@]13CCN(S(=O)(=O)c4ccccc4)[C@H](C2)C1=CC[C@H](N(C)C(=O)/C=C/c1ccoc1)C3
- Ki [1]: > 10000 nM
- Ki [2]: 502 nM

SMILES: COc1ccc2c(c1)[C@]13CCN(S(=O)(=O)c4ccccc4)[C@H](C2)C1=CC[C@@H](N(C)C(=O)/C=C/c1ccoc1)C3
- Ki [1]: > 10000 nM
- Ki [2]: 5.89 nM

SMILES: CN(C(=O)/C=C/c1ccoc1)[C@@H]1CC[C@@]2(O)[C@H]3CC4=C(CCCC4)[C@@]2(CCN3S(=O)(=O)c2ccccc2)C1
- Ki [1]: > 10000 nM
- Ki [2]: > 10000 nM

SMILES: COc1ccc2c(c1)[C@]13CCN(S(=O)(=O)c4ccccc4)[C@H](C2)[C@@H]1CC[C@H](N(C)C(=O)/C=C/c1ccoc1)C3
- Ki [1]: 79.9 nM
- Ki [2]: 4.34 nM
